Test results taken from patent US4533657A, “Analgesic dipeptide amides and method of use and composition thereof” (Sterling Drug Inc., priority 1982, dated 1985).
Read-outs that look alike come from different tables or passages of the source.

Columns and labels:
[1] = tested on: guinea pig ileum longitudinal muscle with myenteric plexus; assay: Guinea Pig Ileum Test (electrically stimulated longitudinal muscle, inhibition of twitch height); type: cell-based; conditions: ratio of IC50 of reference Met5-enkephalin (given as 100) to IC50 of test compound, same preparation, averaged over four preparations
Procedure: Adult male guinea pigs (Charles River, Hartley strain) weighing 300-500 g. are decapitated, and the terminal ileum is exposed by reflecting the overlying cecum, severed at the ileocecal juncture, and removed while cutting the mesenteric attachments to avoid excessive traction on the tissue. The ileum (about 30 cm. in length) is transferred to a beaker containing warm modified Krebs-Henseleit solution (118 mM sodium chloride, 4.75 mM potassium chloride, 2.45 mM calcium chloride, 1.19 mM potassium dihydrogen phosphate, 1.2 mM magnesium sulfate, 25 mM sodium bicarbonate, 11 mM glucose, 20 μM choline chloride and 0.125 μM pyrilamine maleate). The terminal (aboral) portion (about 10 cm. in length) is discarded, and segments (3-4 cm. in length) are cut from the remainder and gently slid onto a glass rod (5-6 mm. in diameter) and arranged so that the mesenteric attachment is in a straight line. A cotton swab moistened in the solution is then carefully used to separate the longitudinal muscle from the underlying circular muscle. The longitudinal muscle and adhering myenteric plexus is then gently removed from the remaining tissue with forceps.
Strips of thus prepared longitudinal muscle are mounted in a double-jacketed organ bath (5 ml.) under tension (1.0 g.), connected to isometric transducers (Grass FT 0.03), bathed in the modified Krebs-Henseleit solution described above, aerated with oxygen-carbon dioxide (95:5) and maintained at 37° C.
Stimulators (Grass S-44) are set to deliver repetitive monphasic square wave field stimulation (supramaximal voltage, 0.10 Hz., 0.25 msec. duration) through platinum ring electrodes at the top and bottom of the bath. Regular contractions of the muscle, which result from electrically-induced liberation of acetylcholine from postganglionic parasympathetic nerves, are recorded on a polygraph (Grass model 5). Following tissue equilibration (45-60 min.) and repeated washing (every 10 min.) an aqueous solution of a reference or test compound is added to the bath in a microliter volume (1.25-250 μl) and reductions in muscle twitch height are recorded. More compound can be added […] first washing the preparation.
From the results a half-maximal inhibitory concentration (IC50) value for the compound is computed by regression analysis of a linear plot of logarithm of concentration against percent of inhibition of twitch height (probits). The ratio of the […] of a reference compound to that of a test compound tested in the same preparation is the molar potency ratio. Usually four preparations are tested simultaneously by the same person (N=4), and the resulting four molar potency ratios are averaged.
The following results were obtained using the examples as test compounds and Met^5 -enkephalin as the reference compound: […]

[2] = tested on: Male Swiss-Webster mice; assay: Mouse Acetylcholine Writhing Test; type: in vivo; conditions: 20 min, subcutaneous, approximate, acetylcholine 3.2 mg./kg. i.p. 20 min after dosing
Procedure: Male Swiss-Webster mice each weighing 18-24 g. are treated subcutaneously (10 ml./kg. injection volume) or orally with the test compound in an aqueous vehicle. Twenty minutes thereafter each mouse is injected intraperitoneally with acetylcholine (3.2 mg./kg.) in aqueous sodium chloride (0.9%). This dose of acetylcholine causes one or more characteristic writhes in the two minute period following injection in control mice which receive the aqueous vehicle not containing the test compound. […] Test compounds are screened at doses of 100 and 30 mg./kg. subcutaneously and 300 and 100 mg./kg. orally using 15 mice at each dose level. ED50 values for active compounds are estimated by probit analysis of quantal scores at four or more dose levels using 15 mice at each dose level.

[3] = tested on: rat; conditions: rat tail flick, cited from earlier work
[4] = tested on: opiate receptor; conditions: rat brain membranes; cited from earlier work
[5] = tested on: guinea pig ileum; conditions: cited from earlier work
[6] = tested on: mouse vas deferens; conditions: cited from earlier work

Row | Compound | Average Molar Potency Ratio [1] | other results
1 | C[C@@H](NC(=O)[C@@H](N)Cc1ccc(O)cc1)C(=O)NCCc1ccccc1.Cl.O [Example 1, L-tyrosyl-N-(2-phenylethyl)-D-alaninamide monohydrochloride hydrate (4:5)] | 14 | –
2 | C[C@@H](NC(=O)[C@@H](N)Cc1ccc(O)cc1)C(=O)N(C)CCCc1ccccc1.Cl.O [Example 2, L-tyrosyl-N-methyl-N-(3-phenylpropyl)-D-alaninamide monohydrochloride monohydrate] | 9 | ED50 [2]: > 10 mg/kg
3 | CCN(CCCc1ccccc1)C(=O)[C@@H](C)NC(=O)[C@@H](N)Cc1ccc(O)cc1.Cl [Example 4, L-tyrosyl-N-ethyl-N-(3-phenylpropyl)-D-alaninamide monohydrochloride] | 4 | ED50 [2]: > 30 mg/kg
4 | C[C@@H](NC(=O)[C@@H](N)Cc1ccc(O)cc1)C(=O)NCCCCc1ccccc1.Cl [Example 5, L-tyrosyl-N-(4-phenylbutyl)-D-alaninamide monohydrochloride] | 12 | –
5 | C[C@@H](NC(=O)[C@@H](N)Cc1ccc(O)cc1)C(=O)NCCCCCc1ccccc1.Cl.O [Example 6, L-tyrosyl-N-(5-phenylpentyl)-D-alaninamide monohydrochloride monohydrate] | 30 | –
6 | C[C@@H](NC(=O)[C@@H](N)Cc1ccc(O)cc1)C(=O)N(CCCc1ccccc1)CCN(C)C.Cl.Cl [Example 7, L-tyrosyl-N-[2-(dimethylamino)ethyl]-N-(3-phenylpropyl)-D-alaninamide dihydrochloride] | 4 | –
7 | C[C@@H](CCc1ccccc1)NC(=O)[C@@H](C)NC(=O)[C@@H](N)Cc1ccc(O)cc1.Cl [Example 8, L-tyrosyl-N-(1-S-methyl-3-phenylpropyl)-D-alaninamide monohydrochloride] | 115 | –
8 | C[C@H](CCc1ccccc1)NC(=O)[C@@H](C)NC(=O)[C@@H](N)Cc1ccc(O)cc1.Cl [Example 9, L-tyrosyl-N-(1-R-methyl-3-phenylpropyl)-D-alaninamide monohydrochloride] | 12 | –
9 | CSCCCN(CCCc1ccccc1)C(=O)[C@@H](C)NC(=O)[C@@H](N)Cc1ccc(O)cc1.CSCCCN(CCCc1ccccc1)C(=O)[C@@H](C)NC(=O)[C@@H](N)Cc1ccc(O)cc1.Cl.Cl.O [Example 10, L-tyrosyl-N-[3-(methylthio)propyl]-N-(3-phenylpropyl)-D-alaninamide monhydrochloride hemihydrate] | 15 | –
10 | C[C@@H](NC(=O)[C@@H](N)Cc1ccc(O)cc1)C(=O)N(CCCc1ccccc1)CCC[S+](C)[O-].Cl (stereo partly drawn) [Example 11, L-tyrosyl-N-[3-(methylsulfinyl)propyl]-N-(3-phenylpropyl)-D-alaninamide monohydrochloride] | 3 | –
11 | C[C@@H](NC(=O)[C@@H](N)Cc1ccc(O)cc1)C(N)=O [H-Tyr-D-Ala-NH2] | – | times less potent than morphine ([3]; intravenously): greater than 10 times; times less potent than morphine ([3]; intraventricularly): 200 times; times less affinity than morphine [4]: 830 times
12 | C[C@@H](NC(=O)[C@@H](N)Cc1ccc(O)cc1)C(=O)NCCNCCc1ccccc1 [HTyrD-AlaNH(CH2)2 NH(CH2)2 Phenyl] | – | potency relative to Met-enkephalin [5]: < 1%; potency relative to Met-enkephalin [6]: < 1%
13 | L-tyrosyl-N-(3-phenylpropyl)-D-alaninamide monohydrochloride sesquihydrate [Example 3] | 117 | –
14 | Met^5 -enkephalin [reference compound] | 100 | –
